Legend:
[1] = Cell viability of tau-BiFC cells (number of nuclei); assay type: cell-based, human; details: human, HEK293 Tau-BiFC cells, 48 h of treatment
Protocol: (§1) HEK293 Tau-BiFC cells were maintained in Dulbecco’s modified Eagle medium (DMEM) supplemented with 10% fetal bovine serum (FBS), 100 units/mL penicillin, 100 µg/mL streptomycin and 100 µg/mL Geneticin (G418) in a humidified atmosphere containing 5% CO2 at 37 °C. Tau-BiFC cells were activated by treatment with FK (30 μM) or tauK18^P301L (5 μg/mL).
(§2) For screening of FDA-approved & Passed Phase I Drug Library, tau-BiFC cells were plated on µ-clear 384-well plates. The next day, the cells were cotreated with forskolin and 1,018 library compounds at a concentration of 10 µM. MB and LMTM (3 µM) were used as positive controls. After 46 h, nuclei were counterstained with Hoechst (Invitrogen). BiFC (λex = 460–490 nm and λem = 500–550 nm) and Hoechst (λex = 355–385 nm and λem = 430–500 nm) fluorescence images were acquired automatically by using Operetta® (PerkinElmer). BiFC fluorescence intensity and the number of nuclei were quantified using Harmony 3.1 software (PerkinElmer). Integrated tau-BiFC intensity represents the area of selected cell X mean fluorescence intensity. The means and standard deviations (S.D.) of BiFC fluorescence intensities and the number of nuclei were plotted using GraphPad Prism.

[2] = parameters: method as in PMID 15489122; details: in humans; cited from earlier work
[3] = 1H NMR of reaction with N-acetyl-L-cysteine methyl ester; details: room temperature
Protocol: NMR analysis was performed at 25 °C and recorded in δ units relative to deuterated solvent as an internal reference using a 400 MHz NMR instrument (Bruker). Deuterated phosphate-buffered saline (d-PBS) was prepared at a concentration of 50 mM (D2O + H2O, 1:1, v/v). Levosimendan (50 mg, […], 1 equivalent) reacted with N-acetyl-L-cysteine methyl ester (38 mg, […], 1.2 equivalent) in 10 mL of d-PBS/DMSO-d6 (1:1, v/v) at room temperature, and the reaction was checked at various time points. For the reversibility study, the reaction mixture was diluted ten times with d-PBS/DMSO-d6 (1:1, v/v) and monitored at room temperature.

tau cysteines = assay: Covalent binding to tau (14C autoradiography, MALDI-TOF of R1-R4 peptides); details: repeat domain:levosimendan 1:10, RT
Protocol: TauK18 (1 mg/mL, 72 μM) was incubated with ^14C-levosimendan (720 μM) in PBS containing 5% DMSO at RT for 2 h. Then, the mixture was separated on a 15% SDS–PAGE gel under nonreducing conditions and stained with Coomassie blue. For autoradiography, the SDS–PAGE gel was transferred to a PVDF membrane and scanned by Typhoon FLA 7000 IP (GE Healthcare).
Each repeat domain (R1, R2, R3, R4, R2-C291S or R3-C322S, 150 μM) was incubated with levosimendan (molar ratio 1:10 of a tau repeat domain: levosimendan) at RT for 37 h. The samples were mixed with matrix solution (10 mg mL^−1 sinapinic acid in 0.1% (v/v) trifluoroacetic acid/CAN) at a ratio of 1:1. The mixtures were directly spotted onto the MALDI target and dried. Mass spectra were acquired in reflection/linear positive ion mode in the m/z range of 2000–100,000 using an Ultraflex III TOF/TOF mass spectrometer controlled by Flex Control 3.0 (Bruker Daltonics). The default operating conditions were as follows: ion source 1, 25.0 kV; ion source 2, 23.0 kV; lens voltage, 6.0 kV; laser repetition rate = 100 Hz. All spectra were generated automatically in the instrument software and based on averaging 1000 shots from 10 nonoverlapping positions (100 shots/position).

HEK293 Tau-BiFC cells = assay: Cell viability of tau-BiFC cells (number of nuclei); assay type: cell-based, human; details: 48 h of treatment
Protocol: as §1, §2

[4] = Tau-BiFC^ON by forskolin (30 μM)
[5] = Tau-BiFC^ON by tauK18^P301L (5 μg/mL)

C[C@@H]1CC(=O)NN=C1c1ccc(NN=C(C#N)C#N)cc1 [Levosimendan]
GI50 at 48 h [1, 4]: 124 ± 0.3 µM
GI50 at 48 h [1, 5]: 101.3 ± 0.4 µM
Portion of levosimendan metabolized to OR-1855 and OR-1896 [2]: 5%
Time to almost complete restoration of levosimendan upon ten-fold dilution ([3]; reaction mixture diluted ten times): 5 days
Time to complete formation of the levosimendan-cysteine conjugate ([3]; with N-acetyl-L-cysteine methyl ester): ≤ 2 h
Covalent attachment to tau repeat domains (MALDI-mass spectrometry) (tau cysteines): covalently attached to the R2 and R3 domains

CN(C)c1ccc2c(c1)Sc1cc(N(C)C)ccc1N2.CS(=O)(=O)O.CS(=O)(=O)O [LMTM, leucomethylene blue mesylate]
GI50 (HEK293 Tau-BiFC cells; [4]): 6.4 ± 0.3 µM
GI50 (HEK293 Tau-BiFC cells; [5]): 6.6 ± 0.3 µM

From article PMC10073126, “Levosimendan inhibits disulfide tau oligomerization and ameliorates tau pathology in Tau^P301L-BiFC mice” (Experimental & Molecular Medicine, 2023)
